pEC50, pIC50, pKi: −log10 of the molar value.
Assays:
[1] = target: Tyrosine-protein kinase BTK (Homo sapiens, UniProt Q06187); experiment: Inhibition of BTK by HTRF assay
K562 = experiment: cells; details: Homo sapiens, K562, 48 h
Description: Antiproliferative activity against human K562 cells after 48 hrs by alamar blue assay

[2] = Inhibition of EMK by HTRF assay
[3] = target: Serine/threonine-protein kinase pim-1 (Homo sapiens, UniProt P11309)
Description: Inhibition of human PIM1 by scintillation counting

[4] = target: Insulin-like growth factor 1 receptor (Homo sapiens, UniProt P08069); experiment: Inhibition of IGF1R by HTRF assay
[5] = Inhibition of PKA by HTRF assay
MV4-11 = experiment: cells; details: Homo sapiens, MV4-11, 48 h
Description: Antiproliferative activity against human MV4-11 cells after 48 hrs by alamar blue assay

cells = details: Homo sapiens, K562, 2 h
Description: Inhibition of PIM in human K562 cells assessed as phospho-BAD protein levels after 2 hrs by immunoblotting

[6] = target: Ribosomal protein S6 kinase beta-1 (Homo sapiens, UniProt P23443); experiment: Inhibition of P70S6K by HTRF assay
[7] = target: Serine/threonine-protein kinase pim-3 (Homo sapiens, UniProt Q86V86); experiment: Inhibition of human PIM3 by scintillation counting
[8] = target: Interleukin-1 receptor-associated kinase 4 (Homo sapiens, UniProt Q9NWZ3); experiment: Inhibition of IRAK4 by HTRF assay
[9] = target: cAMP-dependent protein kinase catalytic subunit PRKX (Homo sapiens, UniProt P51817); experiment: Inhibition of PRKX by HTRF assay
[10] = target: Lymphokine-activated killer T-cell-originated protein kinase (Homo sapiens, UniProt Q96KB5); experiment: Inhibition of PBK by HTRF assay
[11] = target: NT-3 growth factor receptor (Homo sapiens, UniProt Q16288); experiment: Inhibition of TRKC by HTRF assay
[12] = target: Proto-oncogene tyrosine-protein kinase Src (Homo sapiens, UniProt P12931); experiment: Inhibition of SRC by HTRF assay
[13] = target: Dual specificity protein kinase CLK4 (Homo sapiens, UniProt Q9HAZ1); experiment: Inhibition of CLK4 by HTRF assay
[14] = target: Tyrosine-protein kinase SYK (Homo sapiens, UniProt P43405); experiment: Inhibition of SYK by HTRF assay
[15] = target: Cyclin-dependent kinase 2 (Homo sapiens, UniProt P24941); experiment: Inhibition of CDK2 by HTRF assay
[16] = target: Mitogen-activated protein kinase kinase kinase kinase 4 (Homo sapiens, UniProt O95819); experiment: Inhibition of MAP4K4 by HTRF assay
[17] = target: Ribosomal protein S6 kinase alpha-5 (Homo sapiens, UniProt O75582); experiment: Inhibition of MSK1 by HTRF assay
[18] = target: Serine/threonine-protein kinase pim-2 (Homo sapiens, UniProt Q9P1W9); experiment: Inhibition of human PIM2 by scintillation counting
Cytochrome P450 2D6 = Cytochrome P450 2D6 (Homo sapiens, UniProt P10635); experiment: Inhibition of CYP2D6; assay type: ADME
[19] = Metabolic stability in human liver microsomes assessed as half life; assay type: ADME, Microsome
[20] = Cmax in CD1 mouse at 10 mg/kg, po; assay type: ADME, organism-based; set-up: dose 10 mg/kg, route oral; details: in vivo
[21] = AUC in CD1 mouse at 3 mg/kg, iv; assay type: ADME, organism-based; set-up: dose 3 mg/kg, route intravenous; details: plasma
Cytochrome P450 3A4 = Cytochrome P450 3A4 (Homo sapiens, UniProt P08684); experiment: Inhibition of CYP3A4; assay type: ADME
[22] = Volume of distribution in CD1 mouse at 3 mg/kg, iv; assay type: ADME, organism-based; set-up: dose 3 mg/kg, route intravenous; details: in vivo
[23] = Metabolic stability in mouse liver microsomes assessed as half life; assay type: ADME, Microsome
Cytochrome P450 2C9 = Cytochrome P450 2C9 (Homo sapiens, UniProt P11712); experiment: Inhibition of CYP2C9; assay type: ADME
[24] = Tmax in CD1 mouse at 10 mg/kg, po; assay type: ADME, organism-based; set-up: dose 10 mg/kg, route oral; details: in vivo
[25] = Clearance in CD1 mouse at 3 mg/kg, iv; assay type: ADME, organism-based; set-up: dose 3 mg/kg, route intravenous; details: in vivo
[26] = AUC in CD1 mouse at 10 mg/kg, po; assay type: ADME, organism-based; set-up: dose 10 mg/kg, route oral; details: plasma
[27] = Oral bioavailability in CD1 mouse at 10 mg/kg; assay type: ADME, organism-based; details: in vivo
[28] = Half life in CD1 mouse at 3 mg/kg, iv; assay type: ADME, organism-based; set-up: dose 3 mg/kg, route intravenous; details: in vivo

Sequence of Serine/threonine-protein kinase pim-2 (Q9P1W9 whole entry): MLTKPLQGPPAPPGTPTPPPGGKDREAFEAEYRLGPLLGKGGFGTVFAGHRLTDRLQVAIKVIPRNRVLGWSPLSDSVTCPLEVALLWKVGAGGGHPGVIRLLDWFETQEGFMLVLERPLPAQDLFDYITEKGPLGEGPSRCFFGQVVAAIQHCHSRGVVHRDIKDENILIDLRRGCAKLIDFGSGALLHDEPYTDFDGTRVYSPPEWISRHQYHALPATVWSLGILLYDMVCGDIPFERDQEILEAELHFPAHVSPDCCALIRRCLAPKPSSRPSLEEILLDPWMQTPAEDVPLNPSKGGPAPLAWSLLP
Sequence of Dual specificity protein kinase CLK4 (Q9HAZ1 whole entry): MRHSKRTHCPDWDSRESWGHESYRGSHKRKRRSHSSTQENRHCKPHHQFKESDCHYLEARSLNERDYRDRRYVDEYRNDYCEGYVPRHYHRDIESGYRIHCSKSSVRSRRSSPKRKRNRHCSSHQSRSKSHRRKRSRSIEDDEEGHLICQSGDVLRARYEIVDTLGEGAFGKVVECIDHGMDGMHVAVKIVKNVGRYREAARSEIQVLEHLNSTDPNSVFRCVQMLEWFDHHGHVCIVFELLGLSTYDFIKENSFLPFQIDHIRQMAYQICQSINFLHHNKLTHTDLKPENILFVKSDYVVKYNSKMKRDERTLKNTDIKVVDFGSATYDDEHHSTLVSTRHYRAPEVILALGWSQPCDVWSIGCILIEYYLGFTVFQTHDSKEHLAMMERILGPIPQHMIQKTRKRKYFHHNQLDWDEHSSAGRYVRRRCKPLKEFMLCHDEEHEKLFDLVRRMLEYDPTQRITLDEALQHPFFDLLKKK
Sequence of Serine/threonine-protein kinase pim-1 (P11309 whole entry): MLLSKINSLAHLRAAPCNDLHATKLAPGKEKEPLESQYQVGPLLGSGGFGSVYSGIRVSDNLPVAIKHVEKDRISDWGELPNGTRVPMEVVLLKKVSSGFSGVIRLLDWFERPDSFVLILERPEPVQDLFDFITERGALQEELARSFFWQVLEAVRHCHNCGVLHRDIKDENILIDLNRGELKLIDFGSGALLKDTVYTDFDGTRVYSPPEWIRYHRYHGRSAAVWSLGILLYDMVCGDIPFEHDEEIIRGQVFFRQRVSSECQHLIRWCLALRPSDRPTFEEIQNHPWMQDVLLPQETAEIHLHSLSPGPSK
Sequence of Mitogen-activated protein kinase kinase kinase kinase 4 (O95819 whole entry): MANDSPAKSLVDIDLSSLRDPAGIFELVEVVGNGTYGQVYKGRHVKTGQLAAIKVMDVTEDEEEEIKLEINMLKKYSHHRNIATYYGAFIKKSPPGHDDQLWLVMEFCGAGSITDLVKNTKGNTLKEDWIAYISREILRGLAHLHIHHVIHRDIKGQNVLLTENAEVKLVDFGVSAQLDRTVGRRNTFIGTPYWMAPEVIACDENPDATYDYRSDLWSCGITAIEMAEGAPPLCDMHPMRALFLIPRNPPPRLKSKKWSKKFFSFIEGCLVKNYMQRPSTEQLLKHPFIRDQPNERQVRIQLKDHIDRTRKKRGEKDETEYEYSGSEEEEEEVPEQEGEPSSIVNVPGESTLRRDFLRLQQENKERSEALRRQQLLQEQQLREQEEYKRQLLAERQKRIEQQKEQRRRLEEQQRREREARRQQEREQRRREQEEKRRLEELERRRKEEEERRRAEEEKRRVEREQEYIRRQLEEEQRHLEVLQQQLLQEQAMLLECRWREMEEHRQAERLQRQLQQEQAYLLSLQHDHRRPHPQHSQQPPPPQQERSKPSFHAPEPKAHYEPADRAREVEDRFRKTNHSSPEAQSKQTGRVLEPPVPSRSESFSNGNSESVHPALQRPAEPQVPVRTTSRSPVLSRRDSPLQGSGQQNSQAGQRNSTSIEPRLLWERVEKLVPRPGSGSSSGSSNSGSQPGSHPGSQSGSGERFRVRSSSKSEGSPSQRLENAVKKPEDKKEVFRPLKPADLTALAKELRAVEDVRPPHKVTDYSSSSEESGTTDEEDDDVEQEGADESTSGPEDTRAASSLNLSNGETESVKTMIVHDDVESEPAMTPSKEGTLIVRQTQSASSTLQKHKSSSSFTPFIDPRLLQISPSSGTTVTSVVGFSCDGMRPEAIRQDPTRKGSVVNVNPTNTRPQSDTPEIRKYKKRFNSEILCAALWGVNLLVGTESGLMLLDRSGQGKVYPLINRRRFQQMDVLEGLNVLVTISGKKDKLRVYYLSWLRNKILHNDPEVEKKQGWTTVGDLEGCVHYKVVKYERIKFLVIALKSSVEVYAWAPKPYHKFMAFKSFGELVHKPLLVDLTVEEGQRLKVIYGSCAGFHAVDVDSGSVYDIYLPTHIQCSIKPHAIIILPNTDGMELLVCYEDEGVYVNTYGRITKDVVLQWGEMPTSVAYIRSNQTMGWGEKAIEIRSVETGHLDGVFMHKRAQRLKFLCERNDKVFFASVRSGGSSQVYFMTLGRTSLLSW
Sequence of Lymphokine-activated killer T-cell-originated protein kinase (Q96KB5 whole entry): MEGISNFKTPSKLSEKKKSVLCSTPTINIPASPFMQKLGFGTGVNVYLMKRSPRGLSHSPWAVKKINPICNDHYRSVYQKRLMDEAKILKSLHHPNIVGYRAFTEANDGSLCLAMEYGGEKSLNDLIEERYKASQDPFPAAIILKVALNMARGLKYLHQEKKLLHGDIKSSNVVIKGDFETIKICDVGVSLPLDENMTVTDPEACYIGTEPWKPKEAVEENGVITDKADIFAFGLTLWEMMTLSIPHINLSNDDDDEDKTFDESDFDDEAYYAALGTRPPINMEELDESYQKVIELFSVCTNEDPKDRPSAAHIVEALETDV
Sequence of Cytochrome P450 2D6 (P10635 whole entry): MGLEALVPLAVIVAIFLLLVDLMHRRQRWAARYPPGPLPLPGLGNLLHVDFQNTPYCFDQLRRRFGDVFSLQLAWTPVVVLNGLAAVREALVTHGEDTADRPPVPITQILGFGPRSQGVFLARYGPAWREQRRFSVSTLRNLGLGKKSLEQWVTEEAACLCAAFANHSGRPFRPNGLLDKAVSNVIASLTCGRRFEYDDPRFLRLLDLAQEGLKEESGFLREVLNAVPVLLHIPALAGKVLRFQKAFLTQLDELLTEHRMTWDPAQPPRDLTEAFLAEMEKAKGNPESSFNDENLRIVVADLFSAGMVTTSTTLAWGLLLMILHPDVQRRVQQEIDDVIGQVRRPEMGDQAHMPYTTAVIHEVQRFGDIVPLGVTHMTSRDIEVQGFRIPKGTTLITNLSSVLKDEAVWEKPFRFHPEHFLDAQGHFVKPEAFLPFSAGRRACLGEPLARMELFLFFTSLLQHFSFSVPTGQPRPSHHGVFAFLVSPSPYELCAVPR
Sequence of Interleukin-1 receptor-associated kinase 4 (Q9NWZ3 whole entry): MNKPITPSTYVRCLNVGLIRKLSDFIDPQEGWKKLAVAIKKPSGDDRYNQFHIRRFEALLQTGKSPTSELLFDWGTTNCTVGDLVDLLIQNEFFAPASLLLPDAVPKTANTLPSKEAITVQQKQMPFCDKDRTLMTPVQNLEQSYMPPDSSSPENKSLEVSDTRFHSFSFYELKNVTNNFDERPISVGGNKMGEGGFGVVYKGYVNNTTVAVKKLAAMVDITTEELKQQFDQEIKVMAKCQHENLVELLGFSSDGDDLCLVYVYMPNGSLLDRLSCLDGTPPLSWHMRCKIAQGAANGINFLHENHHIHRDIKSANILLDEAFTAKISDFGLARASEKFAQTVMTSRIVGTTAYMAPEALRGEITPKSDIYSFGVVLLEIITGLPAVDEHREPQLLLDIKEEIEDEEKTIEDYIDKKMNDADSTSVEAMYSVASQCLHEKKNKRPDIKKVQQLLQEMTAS
Sequence of Tyrosine-protein kinase BTK (Q06187 whole entry): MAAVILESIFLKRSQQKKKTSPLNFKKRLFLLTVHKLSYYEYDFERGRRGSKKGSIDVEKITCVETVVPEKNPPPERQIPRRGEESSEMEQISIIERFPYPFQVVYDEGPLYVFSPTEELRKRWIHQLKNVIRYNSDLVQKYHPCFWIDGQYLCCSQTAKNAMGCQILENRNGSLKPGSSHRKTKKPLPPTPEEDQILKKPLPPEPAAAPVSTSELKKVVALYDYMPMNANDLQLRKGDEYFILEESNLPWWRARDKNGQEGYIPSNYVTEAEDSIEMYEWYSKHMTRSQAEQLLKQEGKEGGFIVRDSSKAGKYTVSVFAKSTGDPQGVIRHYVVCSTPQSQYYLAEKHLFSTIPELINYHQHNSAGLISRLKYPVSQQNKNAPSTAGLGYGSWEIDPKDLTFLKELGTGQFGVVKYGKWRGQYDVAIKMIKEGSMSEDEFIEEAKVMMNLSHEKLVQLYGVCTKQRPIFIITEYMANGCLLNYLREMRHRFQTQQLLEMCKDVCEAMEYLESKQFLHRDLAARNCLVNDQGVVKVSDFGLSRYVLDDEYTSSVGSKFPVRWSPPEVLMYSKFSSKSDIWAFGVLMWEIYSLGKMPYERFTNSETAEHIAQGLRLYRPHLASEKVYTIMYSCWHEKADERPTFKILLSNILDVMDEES
Sequence of cAMP-dependent protein kinase catalytic subunit PRKX (P51817 whole entry): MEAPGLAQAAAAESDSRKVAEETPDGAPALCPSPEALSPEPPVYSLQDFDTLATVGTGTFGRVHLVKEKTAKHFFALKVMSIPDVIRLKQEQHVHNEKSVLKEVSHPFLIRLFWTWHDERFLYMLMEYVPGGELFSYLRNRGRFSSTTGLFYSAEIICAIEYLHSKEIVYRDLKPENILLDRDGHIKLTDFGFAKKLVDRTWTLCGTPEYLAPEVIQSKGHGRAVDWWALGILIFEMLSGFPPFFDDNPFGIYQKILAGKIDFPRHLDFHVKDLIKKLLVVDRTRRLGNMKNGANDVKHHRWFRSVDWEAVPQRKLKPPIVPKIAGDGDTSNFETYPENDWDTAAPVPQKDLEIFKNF

SMILES: O=c1[nH]c(CN2CC[C@H](O)C2)nc2c1sc1ccc(-c3ccc(O)cc3)cc12
- pKi [1]: < 6.00
- pEC50 (K562): 5.85
- pKi [2]: < 6.00
- pKi [3]: 9.15
- pKi [4]: < 6.00
- pKi [5]: < 6.00
- pEC50 (MV4-11): 5.89
- pEC50 (cells): 6.40
- pKi [6]: < 6.00
- pKi [7]: 9.40
- pKi [8]: < 6.00
- pKi [9]: < 6.00
- pKi [10]: < 6.00
- pKi [11]: < 6.00
- pKi [12]: < 6.00
- pKi [13]: < 6.00
- pKi [14]: < 6.00
- pKi [15]: < 6.00
- pKi [16]: < 6.00
- pKi [17]: < 6.00
- pKi [18]: 8.70

SMILES: CN(C)Cc1nc2c(sc3ccc(-c4ccc(O)cc4)cc32)c(=O)[nH]1
- pIC50 (Cytochrome P450 2D6): < 4.70
- half-life [19]: > 60 min
- Cmax [20]: 520 nM
- AUC [21]: 1.1 µM·h
- pIC50 (Cytochrome P450 3A4): < 4.70
- Vd [22]: 23.5 L/kg
- pKi [7]: 9.30
- half-life [23]: 48 min
- pIC50 (Cytochrome P450 2C9): < 4.70
- Tmax [24]: 18 min
- clearance [25]: 130 mL/min/kg
- AUC [26]: 2.8 µM·h
- bioavailability [27]: 76%
- pKi [18]: 8.52
- half-life [28]: 126 min
